≈ marks a conversion by molar mass, not a printed value. Where a name gives a salt, the structure may show the parent alone.
What was measured:
S. aureus Smith = assay: In vitro antibacterial activity, MIC (standard strain); format: cell-based, Staphylococcus aureus; conditions: Staphylococcus aureus; S. aureus Smith; 10^6 cells/ml; standard strain; read-out: MIC
S. faecalis IID 682 = assay: as above; format: cell-based; conditions: Enterococcus faecalis, IID682; S. faecalis IID 682; 10^6 cells/ml; standard strain; read-out: MIC
[1] = tested on: Escherichia coli NIHJ JC-2; assay: as above; format: cell-based; conditions: Escherichia coli, NIHJJC2, Escherichia coli NIHJ JC-2; 10^6 cells/ml; standard strain; read-out: MIC
[2] = tested on: Morganella morganii IID 602; assay: as above; format: cell-based; conditions: IID602; Morganella morganii IID 602; 10^6 cells/ml; standard strain; read-out: MIC
[3] = tested on: Enterobacter cloacae IID 977; assay: as above; format: cell-based; conditions: Enterobacter cloacae, IID977, Enterobacter cloacae IID 977; 10^6 cells/ml; standard strain; read-out: MIC
[4] = tested on: Citrobacter freundii IID 976; assay: as above; format: cell-based; conditions: IID976; Citrobacter freundii IID 976; 10^6 cells/ml; standard strain; read-out: MIC
K. pneumoniae 1-220S = assay: as above; format: cell-based; conditions: Klebsiella pneumoniae, 1220S; K. pneumoniae 1-220S; 10^6 cells/ml; standard strain; read-out: MIC
[5] = tested on: Salmonella entritidis IID 604; assay: as above; format: cell-based; conditions: IID604; Salmonella entritidis IID 604; 10^6 cells/ml; standard strain; read-out: MIC
[6] = tested on: Serratia marcescens IID 618; assay: as above; format: cell-based; conditions: Serratia marcescens, IID618, Serratia marcescens IID 618; 10^6 cells/ml; standard strain; read-out: MIC
[7] = tested on: Acinetobacter anitratus IID 876; assay: as above; format: cell-based; conditions: Acinetobacter calcoaceticus, IID876, Acinetobacter anitratus IID 876; 10^6 cells/ml; standard strain; read-out: MIC
[8] = tested on: Bacteroides fragilis GM 7000; assay: as above; format: cell-based; conditions: GM7000; Bacteroides fragilis GM 7000; 10^6 cells/ml; standard strain; read-out: MIC
B. fragilis 0558 = assay: as above; format: cell-based, Bacteroides fragilis; conditions: Bacteroides fragilis, 0558, B. fragilis 0558; 10^6 cells/ml; standard strain; read-out: MIC
C. difficile I-E = assay: as above; format: cell-based; conditions: Clostridioides difficile; C. difficile I-E; 10^6 cells/ml; standard strain; read-out: MIC
S. pneumoniae 2054 = assay: In vitro antibacterial activity, MIC (clinical isolates); format: cell-based; conditions: Streptococcus pneumoniae; S. pneumoniae 2054; 10^6 cells/ml; clinical isolate; read-out: MIC
S. pneumoniae 3227 = assay: as above; format: cell-based; conditions: Streptococcus pneumoniae; S. pneumoniae 3227; 10^6 cells/ml; clinical isolate; read-out: MIC
S. pyogenes 3130 = assay: as above; format: cell-based; conditions: Streptococcus pyogenes, read-out: MIC
S. pyogenes 3107 = assay: as above; format: cell-based; conditions: Streptococcus pyogenes; S. pyogenes 3107; 10^6 cells/ml; clinical isolate; read-out: MIC
S. pyogenes 4340 = assay: as above; format: cell-based; conditions: Streptococcus pyogenes; S. pyogenes 4340; 10^6 cells/ml; clinical isolate; read-out: MIC
S. agalactiae 4394 = assay: as above; format: cell-based; conditions: Streptococcus agalactiae; S. agalactiae 4394; 10^6 cells/ml; clinical isolate; read-out: MIC
S. agalactiae 4342 = assay: as above; format: cell-based; conditions: Streptococcus agalactiae; S. agalactiae 4342; 10^6 cells/ml; clinical isolate; read-out: MIC
S. agalactiae 4470 = assay: as above; format: cell-based; conditions: Streptococcus agalactiae; S. agalactiae 4470; 10^6 cells/ml; clinical isolate; read-out: MIC
S. faecalis 49 = assay: as above; format: cell-based; conditions: Enterococcus faecalis; S. faecalis 49; 10^6 cells/ml; clinical isolate; read-out: MIC
S. faecalis 214 = assay: as above; format: cell-based; conditions: Enterococcus faecalis; S. faecalis 214; 10^6 cells/ml; clinical isolate; read-out: MIC
S. faecalis 401 = assay: as above; format: cell-based; conditions: Enterococcus faecalis; S. faecalis 401; 10^6 cells/ml; clinical isolate; read-out: MIC
S. faecalis 402 = assay: as above; format: cell-based; conditions: Enterococcus faecalis; S. faecalis 402; 10^6 cells/ml; clinical isolate; read-out: MIC
E. coli ML4707 = assay: In vivo antibacterial activity against systemic infection in mice; parameters: species or system mice (ICR-S); conditions: Escherichia coli, ML4707; mice (ICR-S); oral, an hour after intraperitoneal infection; challenge dose 2.7 x 10^6 ~ 8.8 x 10^6 cfu/mouse; read-out: ED50 E. coli ML4707
Method: Experiment-2 In vivo antibacterial activity against systemic infection in mice (ICR-S)
The infections were produced by intraperitoneal injection of a suspension of the bacterial culture corresponding to the germ studied. The products were administered orally at an hour after the infection.

Row | Compound | MIC (S. aureus Smith) | MIC (S. faecalis IID 682) | MIC [1] | MIC [2] | MIC [3] | MIC [4] | MIC (K. pneumoniae 1-220S) | MIC [5] | MIC [6] | MIC [7] | MIC [8] | MIC (B. fragilis 0558) | MIC (S. pneumoniae 2054) | MIC (S. pneumoniae 3227) | MIC (S. pyogenes 3130) | MIC (S. pyogenes 3107) | MIC (S. pyogenes 4340) | MIC (S. agalactiae 4394) | MIC (S. agalactiae 4342) | MIC (S. agalactiae 4470) | further results
1 | CNCC1CCN(c2cc3c(cc2F)c(=O)c(C(=O)O)cn3C2CC2)C1 (stereo not drawn) [Example 9, 1-Cyclopropyl-6-fluoro-1,4-dihydro-7-(3-methylaminomethyl-l-pyrrolidinyl)-4-oxo-3-quinolinecarboxylic acid hydrochloride] | 0.39 µg/mL | 0.39 µg/mL | 0.05 µg/mL | 0.78 µg/mL | 0.39 µg/mL | 0.2 µg/mL | 0.39 µg/mL | 0.2 µg/mL | 0.39 µg/mL | 0.78 µg/mL | 25 µg/mL | 12.5 µg/mL | 0.78 µg/mL | 0.39 µg/mL | 0.1 µg/mL | 0.1 µg/mL | 0.2 µg/mL | 0.78 µg/mL | 0.39 µg/mL | 0.39 µg/mL | MIC (C. difficile I-E): 12.5 µg/mL; MIC (S. faecalis 49): 0.39 µg/mL; MIC (S. faecalis 214): 0.39 µg/mL; MIC (S. faecalis 401): 0.78 µg/mL; MIC (S. faecalis 402): 0.78 µg/mL
2 | CNCC1CCN(c2c(F)cc3c(=O)c(C(=O)O)cn(C4CC4)c3c2Br)C1 (stereo not drawn) [Example 16, 8-Bromo-1-cyclopropyl-6-fluoro-1,4-dihydro-7-(3-methylaminomethyl-l-pyrrolidinyl)-4-oxo-3-quinolinecarboxylic acid] | 0.0125 µg/mL (≈ 0.0285 µM) | 0.05 µg/mL (≈ 0.114 µM) | 0.0125 µg/mL (≈ 0.0285 µM) | 0.1 µg/mL (≈ 0.228 µM) | 0.1 µg/mL (≈ 0.228 µM) | 0.05 µg/mL (≈ 0.114 µM) | 0.1 µg/mL (≈ 0.228 µM) | 0.05 µg/mL (≈ 0.114 µM) | 0.1 µg/mL (≈ 0.228 µM) | 0.05 µg/mL (≈ 0.114 µM) | 0.2 µg/mL (≈ 0.456 µM) | 0.1 µg/mL (≈ 0.228 µM) | 0.05 µg/mL (≈ 0.114 µM) | 0.05 µg/mL (≈ 0.114 µM) | 0.05 µg/mL (≈ 0.114 µM) | 0.05 µg/mL (≈ 0.114 µM) | 0.05 µg/mL (≈ 0.114 µM) | 0.1 µg/mL (≈ 0.228 µM) | 0.05 µg/mL (≈ 0.114 µM) | 0.05 µg/mL (≈ 0.114 µM) | MIC (S. faecalis 49): 0.1 µg/mL (≈ 0.228 µM); MIC (S. faecalis 214): 0.1 µg/mL (≈ 0.228 µM); MIC (S. faecalis 401): 0.1 µg/mL (≈ 0.228 µM); MIC (S. faecalis 402): 0.1 µg/mL (≈ 0.228 µM); ED50 (E. coli ML4707): 1.9 mg/kg
3 | CCCNCC1CCN(c2c(F)cc3c(=O)c(C(=O)O)cn(C4CC4)c3c2F)C1 (stereo not drawn) [Example 10, 1-Cyclopropyl-6,8-difluoro-1,4-dihydro-4-oxo-7-(3-n-propylaminomethyl-l-pyrrolidinyl)-3-quinolinecarboxylic acid hydrochloride] | 0.05 µg/mL | 0.39 µg/mL | 0.05 µg/mL | 0.025 µg/mL | 0.2 µg/mL | 0.05 µg/mL | 0.2 µg/mL | 0.1 µg/mL | 0.2 µg/mL | 0.05 µg/mL | 1.56 µg/mL | 0.78 µg/mL | 0.78 µg/mL | 0.2 µg/mL | 0.2 µg/mL | 0.2 µg/mL | 0.2 µg/mL | 0.78 µg/mL | 0.2 µg/mL | 0.39 µg/mL | MIC (C. difficile I-E): 6.25 µg/mL; MIC (S. faecalis 49): 0.39 µg/mL; MIC (S. faecalis 214): 0.39 µg/mL; MIC (S. faecalis 401): 0.78 µg/mL; MIC (S. faecalis 402): 0.39 µg/mL

Source: patent EP0183129A1, “Quinolonecarboxylic acid derivatives” (KYORIN PHARMACEUTICAL CO., LTD., priority 1984, dated 1986)
